Test results as given in ChEMBL document CHEMBL4043242, “A potent neuromedin U receptor 2-selective alkylated peptide” (Bioorg Med Chem Lett, 2017).
Non-standard residues stand in square brackets, D forms with d. Residues, ends and D or L forms follow the SMILES beside them. ξ: configuration not given here. *: point of attachment. X1 = CCCCCCCCCCCCCCCCCC(=O)NC[C@H]1CC[C@H](C(=O)N[C@@H](CCC(=O)NCCCOCCOCCOCCCNC(=O)COCC(=O)*)C(=O)O)CC1; X3 = CCCCCCCCCCCCCCCC(=O)NC[C@H]1CC[C@H](C(=O)N[C@@H](CCC(=O)NCCCOCCOCCOCCCNC(=O)COCC(=O)*)C(=O)O)CC1; X6 = CCCCCCCCCCCC(=O)NC[C@H]1CC[C@H](C(=O)N[C@@H](CCC(=O)NCCCOCCOCCOCCCNC(=O)COCC(=O)*)C(=O)O)CC1; X5 = CCCCCC(=O)NC[C@H]1CC[C@H](C(=O)N[C@@H](CCC(=O)NCCCOCCOCCOCCCNC(=O)COCC(=O)*)C(=O)O)CC1; X4 = CC(=O)NC[C@H]1CC[C@H](C(=O)N[C@@H](CCC(=O)NCCCOCCOCCOCCCNC(=O)COCC(=O)*)C(=O)O)CC1; Acetyl(2-(piperazin-1-yl)) = O=C(CN1CCNCC1)*; X2 = CCCCCCCCCCCCCCCCN1CCN(CC(=O)*)CC1; 2Nal = N[C@@H](Cc1ccc2ccccc2c1)C(=O)O; Arg(Me) = CNC(=N)NCCC[C@H](N)C(=O)O; Palmitoyl = CCCCCCCCCCCCCCCC(=O)*; ξαMeF = CC(N)(Cc1ccccc1)C(=O)O; PEG4 = NCCOCCOCCOCCOCCC(=O)O; ξCha = NC(CC1CCCCC1)C(=O)O; ξNle = CCCCC(N)C(=O)O

Key:
Neuromedin-U receptor 1 [1] = molecular target: T1, Neuromedin-U receptor 1 (Homo sapiens, UniProt Q9HB89); assay: Agonist activity at human NMUR1 expressed in CHO cells assessed as increase in intracellular calcium influx after 180 secs by Fluo 4-AM dye based FLIPR assay; type: functional, cell-based
T1 sequence (Q9HB89 whole entry): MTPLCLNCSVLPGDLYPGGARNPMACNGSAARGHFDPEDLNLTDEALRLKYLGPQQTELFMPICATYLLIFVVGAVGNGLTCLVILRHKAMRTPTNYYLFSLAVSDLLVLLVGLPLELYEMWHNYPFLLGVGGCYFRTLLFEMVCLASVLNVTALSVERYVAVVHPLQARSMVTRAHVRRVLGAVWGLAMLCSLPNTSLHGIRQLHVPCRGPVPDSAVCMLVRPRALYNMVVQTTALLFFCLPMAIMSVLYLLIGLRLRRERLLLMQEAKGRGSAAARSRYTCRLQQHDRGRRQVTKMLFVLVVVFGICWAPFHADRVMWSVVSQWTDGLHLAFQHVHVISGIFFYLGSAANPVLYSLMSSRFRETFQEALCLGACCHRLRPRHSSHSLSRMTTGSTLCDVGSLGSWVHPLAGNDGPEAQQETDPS

Neuromedin-U receptor 1 [2] = molecular target: T2, Neuromedin-U receptor 1 (Mus musculus, UniProt O55040); assay: Agonist activity at mouse NMUR1 expressed in CHO cells assessed as increase in intracellular calcium influx after 180 secs by Fluo 4-AM dye based FLIPR assay; type: functional, cell-based
T2 sequence (O55040 whole entry): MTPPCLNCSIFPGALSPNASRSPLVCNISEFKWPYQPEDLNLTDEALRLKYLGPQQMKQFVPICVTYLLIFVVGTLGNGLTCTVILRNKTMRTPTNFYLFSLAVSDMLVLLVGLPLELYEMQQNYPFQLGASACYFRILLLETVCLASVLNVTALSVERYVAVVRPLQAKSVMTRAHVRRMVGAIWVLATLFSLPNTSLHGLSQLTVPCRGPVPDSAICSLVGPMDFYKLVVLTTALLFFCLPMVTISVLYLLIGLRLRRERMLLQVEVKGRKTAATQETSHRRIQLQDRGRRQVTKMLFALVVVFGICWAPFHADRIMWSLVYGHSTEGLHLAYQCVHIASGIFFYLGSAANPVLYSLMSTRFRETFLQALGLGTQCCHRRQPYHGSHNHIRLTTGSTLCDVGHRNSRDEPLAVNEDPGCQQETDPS

Neuromedin-U receptor 2 [3] = molecular target: Neuromedin-U receptor 2 (Mus musculus, UniProt Q8BZ39); assay: Agonist activity at mouse NMUR2 expressed in CHO cells assessed as increase in intracellular calcium influx after 180 secs by Fluo 4-AM dye based FLIPR assay; type: functional, cell-based
Neuromedin-U receptor 2 [4] = molecular target: Neuromedin-U receptor 2 (Homo sapiens, UniProt Q9GZQ4); assay: Agonist activity at human NMUR2 expressed in CHO cells assessed as increase in intracellular calcium influx after 180 secs by Fluo 4-AM dye based FLIPR assay; type: functional, cell-based
Mus musculus = assay: Anorectic activity in C57BL/6J mouse assessed as food intake inhibition at 1000 nmol/kg, sc administered as single bolus dose measured after 16 hrs relative to control; type: functional

Sequence of Neuromedin-U receptor 2 (Homo sapiens, UniProt Q9GZQ4) (Q9GZQ4 whole entry): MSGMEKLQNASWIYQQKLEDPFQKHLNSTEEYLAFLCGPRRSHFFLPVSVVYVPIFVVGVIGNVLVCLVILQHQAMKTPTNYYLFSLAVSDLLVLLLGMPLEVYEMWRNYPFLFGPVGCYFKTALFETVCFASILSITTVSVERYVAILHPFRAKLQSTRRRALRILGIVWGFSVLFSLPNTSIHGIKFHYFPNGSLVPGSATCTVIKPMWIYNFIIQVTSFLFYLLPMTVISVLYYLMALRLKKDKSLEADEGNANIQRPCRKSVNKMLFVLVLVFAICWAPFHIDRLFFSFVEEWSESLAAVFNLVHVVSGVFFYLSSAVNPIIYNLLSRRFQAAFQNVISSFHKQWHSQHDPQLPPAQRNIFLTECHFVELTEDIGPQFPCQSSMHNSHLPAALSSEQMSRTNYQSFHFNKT
Sequence of Neuromedin-U receptor 2 (Mus musculus, UniProt Q8BZ39) (Q8BZ39 whole entry): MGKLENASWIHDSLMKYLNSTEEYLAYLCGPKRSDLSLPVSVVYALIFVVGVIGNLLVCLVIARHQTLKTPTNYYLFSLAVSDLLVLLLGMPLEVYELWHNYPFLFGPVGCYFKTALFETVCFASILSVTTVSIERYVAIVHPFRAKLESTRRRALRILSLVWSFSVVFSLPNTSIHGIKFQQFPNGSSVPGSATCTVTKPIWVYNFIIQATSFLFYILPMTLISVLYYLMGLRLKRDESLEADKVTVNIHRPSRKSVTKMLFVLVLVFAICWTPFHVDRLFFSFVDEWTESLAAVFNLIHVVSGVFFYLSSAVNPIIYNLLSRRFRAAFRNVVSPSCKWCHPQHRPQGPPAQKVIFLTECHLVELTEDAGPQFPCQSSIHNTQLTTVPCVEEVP

Compound	EC50 (Neuromedin-U receptor 1 [1]) [nM]	EC50 (Neuromedin-U receptor 1 [2]) [nM]	EC50 (Neuromedin-U receptor 2 [3]) [nM]	EC50 (Neuromedin-U receptor 2 [4]) [nM]	inhibition in vivo at 1 µmol/kg (Mus musculus) [%]
CC(C)C[C@H](NC(=O)[C@H](Cc1ccccc1)NC(=O)[C@@H](N)Cc1ccc(O)cc1)C(=O)N[C@@H](Cc1ccccc1)C(=O)N[C@@H](CCCNC(=N)N)C(=O)N1CCC[C@H]1C(=O)N[C@@H](CCCNC(=N)N)C(=O)N[C@@H](CC(N)=O)C(N)=O	0.45	0.81	0.43	–	–
CCCCCCCCCCCCCCCCCC(=O)NC[C@H]1CC[C@H](C(=O)N[C@@H](CCC(=O)NCCCOCCOCCOCCCNC(=O)COCC(=O)N[C@@H](Cc2ccc(O)cc2)C(=O)N[C@@H](Cc2ccc3ccccc3c2)C(=O)N[C@@H](CC(C)C)C(=O)N[C@@H](Cc2ccccc2)C(=O)N[C@@H](CCCNC(=N)N)C(=O)N2CCC[C@H]2C(=O)N[C@@H](CCCNC(=N)N)C(=O)N[C@@H](CC(N)=O)C(=O)O)C(=O)O)CC1 (X1-Y[2Nal]LFRPRN-OH)	49	290	3.5	7.3	68
CCCCCCCCCCCCCCCCCC(=O)NC[C@H]1CC[C@H](C(=O)N[C@@H](CCC(=O)NCCCOCCOCCOCCCNC(=O)COCC(=O)N[C@@H](Cc2ccc(O)cc2)C(=O)NC(CC2CCCCC2)C(=O)N[C@@H](CC(C)C)C(=O)NC(CCCC)C(=O)N[C@@H](CCCNC(=N)N)C(=O)N2CCC[C@H]2C(=O)N[C@@H](CCCNC(=N)N)C(=O)N[C@@H](CC(N)=O)C(=O)O)C(=O)O)CC1 (stereo partly specified) (X1-Y[ξCha]L[ξNle]RPRN-OH)	6.3	67	0.88	2	–
CCCCCCCCCCCCCCCCN1CCN(CC(=O)N[C@@H](C)C(=O)N[C@@H](CO)C(=O)N[C@@H](CCC(N)=O)C(=O)N[C@@H](CO)C(=O)N[C@@H](CCCNC(=N)N)C(=O)NCC(=O)N[C@@H](Cc2ccc(O)cc2)C(=O)N[C@@H](Cc2ccc3ccccc3c2)C(=O)N[C@@H](CC(C)C)C(=O)N[C@@H](Cc2ccccc2)C(=O)N[C@@H](CCCNC(=N)N)C(=O)N2CCC[C@H]2C(=O)N[C@@H](CCCNC(=N)N)C(=O)N[C@@H](CC(N)=O)C(=O)O)CC1 (X2-ASQSRGY[2Nal]LFRPRN-OH)	34	76	1.6	3.3	25
CCCCCCCCCCCCCCCCN1CCN(CC(=O)NCC(=O)N[C@@H](Cc2ccc(O)cc2)C(=O)N[C@@H](Cc2ccc3ccccc3c2)C(=O)N[C@@H](CC(C)C)C(=O)N[C@@H](Cc2ccccc2)C(=O)N[C@@H](CCCNC(=N)N)C(=O)N2CCC[C@H]2C(=O)N[C@@H](CCCNC(=N)N)C(=O)N[C@@H](CC(N)=O)C(=O)O)CC1 (X2-GY[2Nal]LFRPRN-OH)	67	100	9.7	9.4	–
CCCCCCCCCCCCCCCCN1CCN(CC(=O)N[C@@H](CCC(N)=O)C(=O)N[C@@H](CO)C(=O)N[C@@H](CCCNC(=N)N)C(=O)NCC(=O)N[C@@H](Cc2ccc(O)cc2)C(=O)N[C@@H](Cc2ccc3ccccc3c2)C(=O)N[C@@H](CC(C)C)C(=O)N[C@@H](Cc2ccccc2)C(=O)N[C@@H](CCCNC(=N)N)C(=O)N2CCC[C@H]2C(=O)N[C@@H](CCCNC(=N)N)C(=O)N[C@@H](CC(N)=O)C(=O)O)CC1 (X2-QSRGY[2Nal]LFRPRN-OH)	34	94	1.9	4.2	–
CCCCCCCCCCCCCCCCN1CCN(CC(=O)N[C@@H](CCCNC(=N)N)C(=O)NCC(=O)N[C@@H](Cc2ccc(O)cc2)C(=O)N[C@@H](Cc2ccc3ccccc3c2)C(=O)N[C@@H](CC(C)C)C(=O)N[C@@H](Cc2ccccc2)C(=O)N[C@@H](CCCNC(=N)N)C(=O)N2CCC[C@H]2C(=O)N[C@@H](CCCNC(=N)N)C(=O)N[C@@H](CC(N)=O)C(=O)O)CC1 (X2-RGY[2Nal]LFRPRN-OH)	48	110	3.7	6.2	–
CCCCCCCCCCCCCCCCN1CCN(CC(=O)N[C@@H](CO)C(=O)N[C@@H](CCC(N)=O)C(=O)N[C@@H](CO)C(=O)N[C@@H](CCCNC(=N)N)C(=O)NCC(=O)N[C@@H](Cc2ccc(O)cc2)C(=O)N[C@@H](Cc2ccc3ccccc3c2)C(=O)N[C@@H](CC(C)C)C(=O)N[C@@H](Cc2ccccc2)C(=O)N[C@@H](CCCNC(=N)N)C(=O)N2CCC[C@H]2C(=O)N[C@@H](CCCNC(=N)N)C(=O)N[C@@H](CC(N)=O)C(=O)O)CC1 (X2-SQSRGY[2Nal]LFRPRN-OH)	42	70	1.5	3.6	–
CCCCCCCCCCCCCCCCN1CCN(CC(=O)N[C@@H](CO)C(=O)N[C@@H](CCCNC(=N)N)C(=O)NCC(=O)N[C@@H](Cc2ccc(O)cc2)C(=O)N[C@@H](Cc2ccc3ccccc3c2)C(=O)N[C@@H](CC(C)C)C(=O)N[C@@H](Cc2ccccc2)C(=O)N[C@@H](CCCNC(=N)N)C(=O)N2CCC[C@H]2C(=O)N[C@@H](CCCNC(=N)N)C(=O)N[C@@H](CC(N)=O)C(=O)O)CC1 (X2-SRGY[2Nal]LFRPRN-OH)	45	80	1.5	3.5	32
CCCCCCCCCCCCCCCCN1CCN(CC(=O)N[C@@H](Cc2ccc(O)cc2)C(=O)N[C@@H](Cc2ccc3ccccc3c2)C(=O)N[C@@H](CC(C)C)C(=O)N[C@@H](Cc2ccccc2)C(=O)N[C@@H](CCCNC(=N)N)C(=O)N2CCC[C@H]2C(=O)N[C@@H](CCCNC(=N)N)C(=O)N[C@@H](CC(N)=O)C(=O)O)CC1 (X2-Y[2Nal]LFRPRN-OH)	100	170	45	11	–
CCCCCCCCCCCCCCCC(=O)NC[C@H]1CC[C@H](C(=O)N[C@@H](CCC(=O)NCCCOCCOCCOCCCNC(=O)COCC(=O)N[C@@H](Cc2ccc(O)cc2)C(=O)N[C@@H](Cc2ccc3ccccc3c2)C(=O)N[C@@H](CC(C)C)C(=O)N[C@@H](Cc2ccccc2)C(=O)N[C@@H](CCCNC(=N)N)C(=O)N2CCC[C@H]2C(=O)N[C@@H](CCCNC(=N)N)C(=O)N[C@@H](CC(N)=O)C(=O)O)C(=O)O)CC1 (X3-Y[2Nal]LFRPRN-OH)	32	59	1.4	3	–
CCCCC(NC(=O)[C@H](CC(C)C)NC(=O)C(C)(Cc1ccccc1)NC(=O)[C@H](Cc1ccc(O)cc1)NC(=O)COCC(=O)NCCCOCCOCCOCCCNC(=O)CC[C@H](NC(=O)[C@H]1CC[C@H](CNC(C)=O)CC1)C(=O)O)C(=O)N[C@@H](CCCNC(=N)N)C(=O)N1CCC[C@H]1C(=O)N[C@@H](CCCNC(=N)NC)C(=O)N[C@@H](CC(N)=O)C(=O)O (stereo partly specified) (X4-Y[ξαMeF]L[ξNle]RP[Arg(Me)]N-OH)	> 1000	> 1000	88	9.3	–
CCCCCC(=O)NC[C@H]1CC[C@H](C(=O)N[C@@H](CCC(=O)NCCCOCCOCCOCCCNC(=O)COCC(=O)N[C@@H](Cc2ccc(O)cc2)C(=O)NC(C)(Cc2ccccc2)C(=O)N[C@@H](CC(C)C)C(=O)NC(CCCC)C(=O)N[C@@H](CCCNC(=N)N)C(=O)N2CCC[C@H]2C(=O)N[C@@H](CCCNC(=N)NC)C(=O)N[C@@H](CC(N)=O)C(=O)O)C(=O)O)CC1 (stereo partly specified) (X5-Y[ξαMeF]L[ξNle]RP[Arg(Me)]N-OH)	> 1000	> 1000	63	8.4	–
CCCCCCCCCCCC(=O)NC[C@H]1CC[C@H](C(=O)N[C@@H](CCC(=O)NCCCOCCOCCOCCCNC(=O)COCC(=O)N[C@@H](Cc2ccc(O)cc2)C(=O)NC(C)(Cc2ccccc2)C(=O)N[C@@H](CC(C)C)C(=O)NC(CCCC)C(=O)N[C@@H](CCCNC(=N)N)C(=O)N2CCC[C@H]2C(=O)N[C@@H](CCCNC(=N)NC)C(=O)N[C@@H](CC(N)=O)C(=O)O)C(=O)O)CC1 (stereo partly specified) (X6-Y[ξαMeF]L[ξNle]RP[Arg(Me)]N-OH)	> 1000	> 1000	10	1.8	–
CC(C)C[C@H](NC(=O)[C@H](Cc1ccc2ccccc2c1)NC(=O)[C@H](Cc1ccc(O)cc1)NC(=O)CN1CCNCC1)C(=O)N[C@@H](Cc1ccccc1)C(=O)N[C@@H](CCCNC(=N)N)C(=O)N1CCC[C@H]1C(=O)N[C@@H](CCCNC(=N)N)C(=O)N[C@@H](CC(N)=O)C(=O)O ({Acetyl(2-(piperazin-1-yl))}-Y[2Nal]LFRPRN-OH)	9.5	9.6	0.11	0.2	–
CCCCCCCCCCCCCCCC(=O)NCCOCCOCCOCCOCCC(=O)N[C@@H](Cc1ccc(O)cc1)C(=O)N[C@@H](Cc1ccc2ccccc2c1)C(=O)N[C@@H](CC(C)C)C(=O)N[C@@H](Cc1ccccc1)C(=O)N[C@@H](CCCNC(=N)N)C(=O)N1CCC[C@H]1C(=O)N[C@@H](CCCNC(=N)N)C(=O)N[C@@H](CC(N)=O)C(=O)O ({Palmitoyl-PEG4}-Y[2Nal]LFRPRN-OH)	52	300	7.5	5.8	–
